Measured values as given in patent publication US20210113586A1, “NEW USE AND METHODS OF MODULATING IMMUNE RESPONSES” (DIAMYD MEDICAL AB, priority 2018, published 2021).

Key:
responder CD4+ T cells = assay: Multiplex PEA of cytokines released into culture medium by responder CD4+ T cells; assay type: cell-based, human
Description: (§1) The proliferation of freshly isolated human PBMCs or CD4^+ T cells was evaluated with MTT (3-(4,5-Dimethylthiazol-2-yl)-2,5-Diphenyltetrazolium Bromide) assay (Ring et al., 2012). Cells were suspended in complete medium (RPMI 1640 supplemented with 2 mM glutamine, 25 mM HEPES, 10% heat inactivated fetal bovine serum, 100 U/ml penicillin, 10 mg/ml streptomycin, 5 mM R-mercaptoethanol) in a concentration 1 million cells per milliliter. The assay was performed in 96-well plates in duplicates or triplicates, where each well was pre-coated with 3 μg/ml anti-CD3 antibody for 3-5 h at 37° C. Each well was loaded with 100,000 cells. Drugs were added to the wells at the relevant concentrations. The plate was incubated for 68 h at 37° C. (95% O2, 5% CO2) and then, a media-soluble tetrazolium dye MTT was added to a final concentration of 1 mM after which the plate was incubated for additional 4 h. The plate was then centrifuged at 2,000 RPM for 10 min to pellet the insoluble purple formazan crystals. The supernatant culture media was collected, stored at −80° C. and used for analysis of cytokines using the multiplex proximity extension assay (PEA). The formazan crystal pellet was dissolved in DMSO and the plate was read within 10 min using a Multiskan MS plate reader (Labsystems) at 550 nm. The optical density value was used as the proliferation index value. Drugs were purchased from Sigma-Aldrich or Tocris (Bristol, UK).
(§2) Plasma samples, and culture media samples that were collected from plate wells at the end of the proliferation assay, were analyzed by multiplex PEA with an Olink Inflammation […] panel, targeting 92 proteins related to inflammation (Olink Proteomics, Uppsala, Sweden) as previously described (Edvinsson et al., 2017, Assarsson et al., 2014, Larsson et al., 2015, Larssen et al., 2017). Briefly, 1 μl of sample (plasma samples or cell culture media samples) or negative control was mixed with 3 μl probe solution containing a set of 92 paires DNA-oligonucleotide-conjugated antibodies. Upon recognition of a target protein by a pair of probes, the DNA oligonucletodies on the antibodies are brought in proximity and hybridize to each other, followed by enzymatic DNA polymerization to form a new DNA molecule. The newly formed DNA molecule is then amplified and quantified using a microfluidic real-time qPCR, BioMark™ HD (Fluidigm, South San Francisco, Calif., USA). The generated quantification cycle (Cq) values are normalized against spiked-in controls to convert Cq values to Normalized Protein eXpression (NPX) value on log2 scale. NPX is an arbitrary unit, which is positively correlated to protein concentration. These NPX data were then converted to linear data, using the formula 2^NPX, prior to further statistical analysis. Limit of detection (LOD) for each protein was defined as three standard deviations above the background. Proteins with levels below LOD were excluded from further data analysis.

[1] = system: non-responder CD4+ T cells; assay: Multiplex PEA of cytokines released into culture medium by non-responder CD4+ T cells; assay type: cell-based, human
Description: as §1, §2

[2] = system: PBMCs from T1D individuals; assay: Proliferation of anti-CD3 stimulated PBMCs from T1D donors; assay type: cell-based, human; details: Example 1, FIG. 1D; PBMCs from all 13 T1D donors; 100 nM GABA
Description: (§3) Peripheral Blood Mononuclear cells (PBMCs) are isolated from blood from donors diagnosed with Type-1 diabetes and healthy controls. Alternatively, CD4-positive cells (T-cells) are further isolated from PBMCs by e.g. MACS beads, FACS or similar technology. […] A reasonable replication, such as 3 cultures of each condition, is performed. A normalized proliferation value for each culture is then calculated by a standard proliferation measurement method, such as by CFSE staining or radioactive thymidine incorporation (requiring additional factors be added during culture) or by staining for proliferation markers.
(§4) In the FIG. 1, the proliferation of cells retrieved from 13 T1D subjects and 15 healthy controls were inspected. […] A normalized proliferation index was calculated for each culture.
as §1, with “The optical density value was used as the proliferation index value. Drugs were purchased from Sigma-Aldrich or Tocris (Bristol, UK).” left out

[3] = system: PBMCs from nondiabetic (ND) individuals; details: GABA 100 nM, normalized to control
Description: as §1, §2

[4] = system: PBMCs from ND individuals; details: Example 1, FIG. 1C; PBMCs of 15 healthy donors; 100 nM GABA
Description: as §3, §4
The proliferation of freshly isolated human PBMCs or CD4^+ T cells was evaluated with MTT (3-(4,5-Dimethylthiazol-2-yl)-2,5-Diphenyltetrazolium Bromide) assay (Ring et al., 2012). Cells were suspended in complete medium (RPMI 1640 supplemented with 2 mM glutamine, 25 mM HEPES, 10% heat inactivated fetal bovine serum, 100 U/ml penicillin, 10 mg/ml streptomycin, 5 mM R-mercaptoethanol) in a concentration 1 million cells per milliliter. […] The formazan crystal pellet was dissolved in DMSO and the plate was read within 10 min using a Multiskan MS plate reader (Labsystems) at 550 nm. […]

[5] = GABA 100 nM, responder CD4+ T cells, normalized to control
[6] = GABA 500 nM, responder CD4+ T cells, normalized to control
[7] = GABA 100 nM, non-responder CD4+ T cells, normalized to control
[8] = GABA 500 nM, non-responder CD4+ T cells, normalized to control

NCCCC(=O)O [GABA, gamma-aminobutyric acid]
number of cytokines whose release was significantly decreased (responder CD4+ T cells; 100 nM GABA): 27 cytokines | number of cytokines whose release was significantly decreased (responder CD4+ T cells; 500 nM GABA): 25 cytokines | 4E-BP1 in culture medium, % Mean (responder CD4+ T cells; [5]): 67.1% | ADA in culture medium, % Mean (responder CD4+ T cells; [5]): 79.3% | CASP-8 in culture medium, % Mean (responder CD4+ T cells; [5]): 66.3% | CCL19 in culture medium, % Mean (responder CD4+ T cells; [5]): 68.7% | CCL20 in culture medium, % Mean (responder CD4+ T cells; [5]): 61.5% | CSCP1 in culture medium, % Mean (responder CD4+ T cells; [5]): 60.6% | CSF-1 in culture medium, % Mean (responder CD4+ T cells; [5]): 84.2% | CXCL10 in culture medium, % Mean (responder CD4+ T cells; [5]): 62.7% | CXCL11 in culture medium, % Mean (responder CD4+ T cells; [5]): 69.1% | DNER in culture medium, % Mean (responder CD4+ T cells; [5]): 94.6% | Flt3L in culture medium, % Mean (responder CD4+ T cells; [5]): 79.3% | IL-6 in culture medium, % Mean (responder CD4+ T cells; [5]): 71.6% | IL-13 in culture medium, % Mean (responder CD4+ T cells; [5]): 69.9% | IL-18R1 in culture medium, % Mean (responder CD4+ T cells; [5]): 76.1% | IL-24 in culture medium, % Mean (responder CD4+ T cells; [5]): 71.8% | LAP TGF-beta-1 in culture medium, % Mean (responder CD4+ T cells; [5]): 79.6% | LIF in culture medium, % Mean (responder CD4+ T cells; [5]): 66.9% | MCP-1 in culture medium, % Mean (responder CD4+ T cells; [5]): 76.9% | OPG in culture medium, % Mean (responder CD4+ T cells; [5]): 70.5% | OSM in culture medium, % Mean (responder CD4+ T cells; [5]): 76.4% | STAMPB in culture medium, % Mean (responder CD4+ T cells; [5]): 68.6% | TNFRSF9 in culture medium, % Mean (responder CD4+ T cells; [5]): 86.3% | TNFSF14 in culture medium, % Mean (responder CD4+ T cells; [5]): 70.6% | TRAIL in culture medium, % Mean (responder CD4+ T cells; [5]): 75.9% | TRANCE in culture medium, % Mean (responder CD4+ T cells; [5]): 89.3% | μPA in culture medium, % Mean (responder CD4+ T cells; [5]): 78.9% | 4E-BP1 in culture medium, % Mean (responder CD4+ T cells; [6]): 50.6% | CASP-8 in culture medium, % Mean (responder CD4+ T cells; [6]): 61.4% | CCL19 in culture medium, % Mean (responder CD4+ T cells; [6]): 59.9% | CCL20 in culture medium, % Mean (responder CD4+ T cells; [6]): 66.0% | CD40 in culture medium, % Mean (responder CD4+ T cells; [6]): 77.8% | CDCP1 in culture medium, % Mean (responder CD4+ T cells; [6]): 44.3% | CXCL1 in culture medium, % Mean (responder CD4+ T cells; [6]): 72.2% | CXCL5 in culture medium, % Mean (responder CD4+ T cells; [6]): 66.0% | CXCL9 in culture medium, % Mean (responder CD4+ T cells; [6]): 62.2% | CXCL10 in culture medium, % Mean (responder CD4+ T cells; [6]): 60.6% | CXCL11 in culture medium, % Mean (responder CD4+ T cells; [6]): 66.6% | DNER in culture medium, % Mean (responder CD4+ T cells; [6]): 68.6% | IFM-gamma in culture medium, % Mean (responder CD4+ T cells; [6]): 73.2% | IL-5 in culture medium, % Mean (responder CD4+ T cells; [6]): 76.0% | IL-8 in culture medium, % Mean (responder CD4+ T cells; [6]): 81.2% | IL-12B in culture medium, % Mean (responder CD4+ T cells; [6]): 69.4% | IL-13 in culture medium, % Mean (responder CD4+ T cells; [6]): 83.0% | IL-18R1 in culture medium, % Mean (responder CD4+ T cells; [6]): 85.8% | OPG in culture medium, % Mean (responder CD4+ T cells; [6]): 66.4% | SCF in culture medium, % Mean (responder CD4+ T cells; [6]): 61.8% | STAMPB in culture medium, % Mean (responder CD4+ T cells; [6]): 57.8% | TNF in culture medium, % Mean (responder CD4+ T cells; [6]): 47.8% | TNFB in culture medium, % Mean (responder CD4+ T cells; [6]): 69.0% | TNFSF14 in culture medium, % Mean (responder CD4+ T cells; [6]): 60.0% | μPA in culture medium, % Mean (responder CD4+ T cells; [6]): 68.0% | number of cytokines whose secretion was decreased in total (responder CD4+ T cells; responder group, concentration-dependent (100, 500 nM)): 37 cytokines | IL-1 alpha in culture medium, % Mean [1, 7]: 112.8% | MMP-1 in culture medium, % Mean [1, 7]: 124.2% | IL-5 in culture medium, % Mean [1, 8]: 87.2% | PD-L1 in culture medium, % Mean [1, 8]: 120.4% | TGF-alpha in culture medium, % Mean [1, 8]: 109.5% | number of cytokines whose secretion was regulated ([1]; GABA 100 and 500 nM, at each concentration): four | proliferation in the presence of GABA [2]: proliferated less | AXIN1 in culture medium, % Mean [3]: 82.3% | CCL4 in culture medium, % Mean [3]: 95.3% | CD244 in culture medium, % Mean [3]: 92.5% | CXCL9 in culture medium, % Mean [3]: 81.3% | IL-12B in culture medium, % Mean [3]: 84.8% | IL-18R1 in culture medium, % Mean [3]: 90.7% | LIF in culture medium, % Mean [3]: 88.5% | OPG in culture medium, % Mean [3]: 81.8% | OSM in culture medium, % Mean [3]: 88.1% | PD-L1 in culture medium, % Mean [3]: 87.8% | SIRT2 in culture medium, % Mean [3]: 81.6% | TNF in culture medium, % Mean [3]: 74.1% | TNFB in culture medium, % Mean [3]: 95.7% | TNFRSF9 in culture medium, % Mean [3]: 99.6% | TNFSF14 in culture medium, % Mean [3]: 89.2% | TWEAK in culture medium, % Mean [3]: 86.3% | proliferation in the presence of GABA [4]: did not proliferate differently
